{"source": "patent US11235976B2", "about": "“Nanocarbon-iron composite system as well as composition, preparation method and use thereof” (Chongqing Lummy Pharmaceutical Co., LTD, priority 2017, dated 2022)", "test_in_all_cases": "Cell experiment, cell survival rate", "assay_type_in_all_cases": "cell-based", "settings_in_all_cases": "48 h", "key": {"A549 lung cancer cells": {"test_system": "A549 lung cancer cells", "procedure": "(§1) Cells growing in a log phase are collected, the concentration of the cell suspension is adjusted, 100 μL of cell suspension is added to each well and the cells are plated (edge wells are filled with sterile PBS) at a density of 1×10^3-10^4 cells/well. The cells are incubated for 24 hours at 37° C. under the condition of 5% CO2, a nanocarbon-iron solution having a concentration gradient (nanocarbon content: 125, 62.5, 15.63 and 3.91 μg/mL; and ferric ion content: 13.65, 6.83, 1.71 and 0.43 μg/mL) is added, and three sub-wells are set. Then the cells are incubated for 48 hours at 37° C. under the condition of 5% CO2. 10 μL of CCK8 solution is added to each well and then the cells are continuously incubated for 2 hours. The absorbance of each well is measured at OD=450 nm with the microplate reader. In addition, a negative control group, nanocarbon control groups having the same concentration and iron preparation control groups having the same concentration are set.\nas §1, with “and 1” for “100”, “of a 6-well plate” for “and the cells are plated (edge wells are filled with sterile PBS)”, “3×10^4” for “1×10^3-10^4”, “1.71,” for “1.71 and”, “The” for “10 μL of CCK8 solution is added to each well and then the”, “trypsinized and counted.” for “continuously incubated for 2 hours. The absorbance of each well is measured at OD=450 nm with the microplate reader.”"}, "[1]": {"test_system": "HCT116 colon cancer cells", "procedure": "as §1\nas §1, with “and 1” for “100”, “of a 6-well plate” for “and the cells are plated (edge wells are filled with sterile PBS)”, “3×10^4” for “1×10^3-10^4”, “1.71,” for “1.71 and”, “The” for “10 μL of CCK8 solution is added to each well and then the”, “trypsinized and counted.” for “continuously incubated for 2 hours. The absorbance of each well is measured at OD=450 nm with the microplate reader.”"}, "[2]": {"test_system": "Hela cervical cancer cells", "procedure": "as §1\nas §1, with “and 1” for “100”, “of a 6-well plate” for “and the cells are plated (edge wells are filled with sterile PBS)”, “3×10^4” for “1×10^3-10^4”, “1.71,” for “1.71 and”, “The” for “10 μL of CCK8 solution is added to each well and then the”, “trypsinized and counted.” for “continuously incubated for 2 hours. The absorbance of each well is measured at OD=450 nm with the microplate reader.”"}, "[3]": {"test_system": "MDA-MB-231 breast cancer cells", "procedure": "as §1\nas §1, with “and 1” for “100”, “of a 6-well plate” for “and the cells are plated (edge wells are filled with sterile PBS)”, “3×10^4” for “1×10^3-10^4”, “1.71,” for “1.71 and”, “The” for “10 μL of CCK8 solution is added to each well and then the”, “trypsinized and counted.” for “continuously incubated for 2 hours. The absorbance of each well is measured at OD=450 nm with the microplate reader.”"}, "[4]": {"test_system": "SGC-7901 stomach cancer cells", "procedure": "as §1\nas §1, with “and 1” for “100”, “of a 6-well plate” for “and the cells are plated (edge wells are filled with sterile PBS)”, “3×10^4” for “1×10^3-10^4”, “1.71,” for “1.71 and”, “The” for “10 μL of CCK8 solution is added to each well and then the”, “trypsinized and counted.” for “continuously incubated for 2 hours. The absorbance of each well is measured at OD=450 nm with the microplate reader.”"}, "[5]": {"test_system": "SKOV3 ovarian cancer cells", "procedure": "as §1\nas §1, with “and 1” for “100”, “of a 6-well plate” for “and the cells are plated (edge wells are filled with sterile PBS)”, “3×10^4” for “1×10^3-10^4”, “1.71,” for “1.71 and”, “The” for “10 μL of CCK8 solution is added to each well and then the”, “trypsinized and counted.” for “continuously incubated for 2 hours. The absorbance of each well is measured at OD=450 nm with the microplate reader.”"}, "[6]": {"settings": "iron preparation alone 0.43 μg/mL"}, "[7]": {"settings": "iron preparation alone 1.71 μg/mL"}, "[8]": {"settings": "iron preparation alone 6.83 μg/mL"}, "[9]": {"settings": "iron preparation alone 13.65 μg/mL"}}}
{"substance": "ferrous gluconate", "values": [{"measurement": "Cell Survival Rate", "setting": "A549 lung cancer cells; [6]", "result": 100, "unit": "%"}, {"measurement": "Cell Survival Rate", "setting": "A549 lung cancer cells; [7]", "result": 100, "unit": "%"}, {"measurement": "Cell Survival Rate", "setting": "A549 lung cancer cells; [8]", "result": 100, "unit": "%"}, {"measurement": "Cell Survival Rate", "setting": "A549 lung cancer cells; [9]", "result": 97.31, "unit": "%"}, {"measurement": "Cell Survival Rate", "setting": "[1]; [6]", "result": 100, "unit": "%"}, {"measurement": "Cell Survival Rate", "setting": "[1]; [7]", "result": 100, "unit": "%"}, {"measurement": "Cell Survival Rate", "setting": "[1]; [8]", "result": 100, "unit": "%"}, {"measurement": "Cell Survival Rate", "setting": "[1]; [9]", "result": 98.67, "unit": "%"}, {"measurement": "Cell Survival Rate", "setting": "[2]; [6]", "result": 100, "unit": "%"}, {"measurement": "Cell Survival Rate", "setting": "[2]; [7]", "result": 100, "unit": "%"}, {"measurement": "Cell Survival Rate", "setting": "[2]; [8]", "result": 100, "unit": "%"}, {"measurement": "Cell Survival Rate", "setting": "[2]; [9]", "result": 97.86, "unit": "%"}, {"measurement": "Cell Survival Rate", "setting": "[3]; [6]", "result": 100, "unit": "%"}, {"measurement": "Cell Survival Rate", "setting": "[3]; [7]", "result": 100, "unit": "%"}, {"measurement": "Cell Survival Rate", "setting": "[3]; [8]", "result": 100, "unit": "%"}, {"measurement": "Cell Survival Rate", "setting": "[3]; [9]", "result": 100, "unit": "%"}, {"measurement": "Cell Survival Rate", "setting": "[4]; [6]", "result": 100, "unit": "%"}, {"measurement": "Cell Survival Rate", "setting": "[4]; [7]", "result": 100, "unit": "%"}, {"measurement": "Cell Survival Rate", "setting": "[4]; [8]", "result": 99.48, "unit": "%"}, {"measurement": "Cell Survival Rate", "setting": "[4]; [9]", "result": 97.43, "unit": "%"}, {"measurement": "Cell Survival Rate", "setting": "[5]; [6]", "result": 100, "unit": "%"}, {"measurement": "Cell Survival Rate", "setting": "[5]; [7]", "result": 100, "unit": "%"}, {"measurement": "Cell Survival Rate", "setting": "[5]; [8]", "result": 96.47, "unit": "%"}]}
